One data set deals with Peronospora parasitica. The experiment in a line: In vivo test on Peronospora parasitica (crucifer downy mildew). As to conditions: dose of 500 ppm; cabbage plants; grading 5 days after contamination. The protocol:
In Vivo Test on Peronospora parasitica (Crucifer Downy Mildew)
The active ingredients tested are prepared by homogenization in a mixture of acetone/Tween/DMSO, then diluted with water to obtain the desired active material concentration.
Cabbage plants (Eminence variety) in starter cups, sown on a 50/50 peat soil-pozzolana substrate and grown at 18-20° C., are treated at the cotyledon stage by spraying with the aqueous suspension described above.
(§1) Plants, used as controls, are treated with an aqueous solution not containing the active material.
After 24 hours, the plants are contaminated by spraying them with an aqueous suspension of Peronospora parasitica spores (50 000 spores per ml). The spores are collected from infected plant.
The contaminated cabbage plants are incubated for 5 days at 20° C., under a humid atmosphere.
Grading is carried out 5 days after the contamination, in comparison with the control plants.

The next data set deals with Botrytis cinerea. The experiment in a line: In vivo test on Botrytis cinerea (grey mould). The conditions noted are these: dose of 500 ppm; gherkin plants; grading 5/7 days after contamination. The protocol: In Vivo Test on Botrytis cinerea (Grey Mould)
The active ingredients tested are prepared by homogenization in a mixture of acetone/Tween/DMSO, then diluted with water to obtain the desired active material
Gherkin plants (Vert petit de Paris variety), sown on a 50/50 peat soil-pozzolana substrate in starter cups and grown at 18-20° C., are treated at the cotyledon Z11 stage by spraying with the active ingredient prepared as described above.
as §1
After 24 hours, the plants are contaminated by depositing drops of an aqueous suspension of Botrytis cinerea spores (150,000 spores per ml) on upper surface of the leaves. The spores are collected from a 15-day-old culture and are suspended in a nutrient solution composed of: • 20 g/L of gelatine; • 50 g/L of D-fructose; • 2 g/L of NH4NO3; • 1 g/L of KH2PO4.
The contaminated cucumber plants are settled for 5/7 days in a climatic room at 15-11° C. (day/night) and at 80% relative humidity.
Grading is carried out 5/7 days after the contamination, in comparison with the control plants.

Another data set relates to Pyrenophora teres. Put plainly: In vivo test on Pyrenophora teres (barley net blotch). As to conditions: dose of 500 ppm; barley plants; grading 12 days after contamination. In short, it runs like this:
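Scoring is done 12 days after spore spraying (12,000 spores/ml, from 12-day-old culture), relative to water-treated controls. Inoculation follows by 24 h a preventive spray of the aqueous-diluted formulation onto 1-leaf Plaisant barley raised at 12° C.; infection holds 24 h at about 20° C./100% RH, then 12 days at 80% RH.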

The subject of the next data set is Puccinia recondita. The experiment in a line: In vivo test on Puccinia recondita (brown rust). As to conditions: dose of 500 ppm; wheat plants; grading 10 days after contamination. The method, then:
In Vivo Test on Puccinia recondita (Brown Rust)
(§2) The active ingredients tested are prepared by homogenization in a mixture of acetone/tween/DMSO, then diluted with water to obtain the desired active material.
Wheat plants (Scipion variety) sown on 50/50 peat soil-pozzolana substrate in starter cups and grown at 12° C., are treated at the 1-leaf stage (10 cm tall) by spraying with the aqueous suspension described above.
as §1
After 24 hours, the plants are contaminated by spraying the leaves with an aqueous suspension of Puccinia recondita spores (100,000 spores per ml). The spores are collected from a 10-day-old contaminated wheat and are suspended in water containing 2.5 ml/l of tween 80 10%. The contaminated wheat plants are incubated for 24 hours at 20° C. and at 100% relative humidity, and then for 10 days at 20° C. and at 70% relative humidity.
Grading is carried out 10 days after the contamination, in comparison with the control plants.

A further data set has as its system Phakopsora pachyrhizi. As to conditions: 250 ppm active substance; protective; assessment 11 days after inoculation.
For data set [1] the following is noted: for logP value of the minor isomer (in parenthesis in column Isomer ratio [d]): main value of the example measured by method [b].
For a further data set, the system named is Pyricularia oryzae. The conditions noted are these: in vivo.
Another data set relates to Rhizoctonia solani. Put plainly: Rhizoctonia test (rice) / protective. Format: in vivo. The conditions noted are these: 500 ppm active compound, protective spray, evaluated 4 days after inoculation. The method, then: Rhizoctonia Test (Rice)/Protective
Solvent: 28.5 parts by weight of acetone
Emulsifier: 1.5 parts by weight of polyoxyethylene alkyl phenyl ether
To produce a suitable preparation of active compound, 1 part by weight of active compound is mixed with the stated amounts of solvent and emulsifier, and the concentrate is diluted with water to the desired concentration.
To test for protective activity, young plants are sprayed with the preparation of active compound at the stated rate of application. One day after spraying, the plants are inoculated with a hypha of the causal agent of rice sheath blight (Rhizoctonia solani). The plants are then placed in an incubator at approximately 25° C. and a relative atmospheric humidity of approximately 100%.
The test is evaluated 4 days after the inoculation. 0% means an efficacy which corresponds to that of the control, while an efficacy of 100% means that no disease is observed.

The subject of another data set is Cochliobolus miyabeanus. The experiment in a line: Cochliobolus test (rice) / protective. Format: in vivo. The conditions noted are these: 500 ppm active compound, protective spray, evaluated 4 days after inoculation.
Another data set concerns Sphaerotheca fuliginea. Put plainly: In vivo test on Sphaerotheca fuliginea (cucurbits powdery mildew). The conditions noted are these: dose of 500 ppm; gherkin plants; grading 12 days after contamination. The method, then:
In Vivo Test on Sphaerotheca fuliginea (Cucurbits Powdery Mildew)
as §2
Gherkin plants (Vert petit de Paris variety) in starter cups, sown on a 50/50 peat soil-pozzolana substrate and grown at 20° C./23° C., are treated at the cotyledon Z10 stage by spraying with the aqueous suspension described above. Plants, used as controls, are treated with an aqueous solution not containing the active material.
After 24 hours, the plants are contaminated by spraying them with an aqueous suspension of Sphaerotheca fuliginea spores (100 000 spores per ml). The spores are collected from a contaminated plants. The contaminated gherkin plants are incubated at about 20° C./25° C. and at 60/70% relative humidity.
Grading (% of efficacy) is carried out 12 days after the contamination, in comparison with the control plants.

The next data set has as its system Pyricularia grisea. As to conditions: in vivo.
The test system of a further data set is Fusarium proliferatum. The experiment in a line: Production of fumonisin FB1 by Fusarium proliferatum (microtiter plate, HPLC-MS/MS and OD620). Format: cell-based.
Another data set relates to Alternaria solani. The experiment in a line: Alternaria test (tomato) / protective. The data set is classed as in vivo. The conditions noted are these: 500 ppm active compound, protective spray, evaluated 7 days after inoculation. In short, it runs like this:
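Efficacy scored 7 days after inoculation, where 100% means no infection and 0% matches the untreated control. Test plants were young tomatoes given a protective spray at the stated rate, compound dissolved in DMF plus emulsifier and diluted with water. Incubation at 20° C, 96% relative humidity.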

For data set [2] the following is noted: method [c]: LC-MS at pH 7.8, 0.001 molar ammonium hydrogen carbonate, gradient 10% to 95% acetonitrile.
The subject of another data set is Fusarium graminearum. The data set is classed as cell-based. The conditions noted are these: 50 μM.

Where two headings read alike, the source gives them in different places. Marks after values point to notes of the source that are not given here.

On to `CCC(C)n1cc(-c2ccncc2)c(-c2ccc(Cl)s2)n1` (stereo not shown) [Example 8], for which the protection in the data set on Peronospora parasitica amounted to 92%; in the data set on Botrytis cinerea it was 100%; in the data set on Pyrenophora teres, 100%; in the data set with Puccinia recondita, 86%. In the data set on Phakopsora pachyrhizi, this compound returned an activity level of 98%. Also, the log p in data set [1] (pH 2.7) was 2.1^[b].
As for `CC(C)n1cc(-c2ccncc2)c(-c2ccc(Cl)s2)n1` [Example 38], the efficacy in the data set on Pyricularia oryzae is 98%; with Rhizoctonia solani it was 97%; in the data set with Cochliobolus miyabeanus, 93%. Further, the results for the protection in the data set with Peronospora parasitica, with Botrytis cinerea and in the data set with Puccinia recondita were 97%, 100% and 72%, respectively. Besides, the “protection (% of efficacy)” value is reported as 83% with Sphaerotheca fuliginea and 98% in the data set with Pyricularia grisea. Also, in the data set with Fusarium proliferatum (5 days at 20° C., HPLC-MS/MS), the “% inhibition FB1 production at 50 μM” value is 100%. For the same compound, the “% inhibition fungal growth at 50 μM” value in the data set on Fusarium proliferatum (Fusarium proliferatum, OD620 at start and after 5 days) is 88%. Further, the results for the log p in data set [1] (pH 2.3) and in data set [1] (pH 2.7) were 1.63^[a]; and 1.88^[b], respectively.
As for `Cn1cc(-c2ccncc2)c(-c2ccc(Cl)s2)n1` [Example 46], the efficacy with Alternaria solani stood at 95%; in the data set on Pyricularia oryzae, 93%. Further, the protection was determined as 92% in the data set with Peronospora parasitica and 70% in the data set on Pyrenophora teres. Further, the “protection (% of efficacy)” value in the data set with Pyricularia grisea worked out at 93%. The “logP value of the minor isomer (in parenthesis in column Isomer ratio [d])” value in data set [1] (pH 2.7) is “(1.17)”. The log p in data set [1] (pH 2.7) was 1.26^[b].
For the compound `C#CCn1cc(-c2ccncc2)c(-c2ccc(Cl)s2)n1` [Example 47], the efficacy with Alternaria solani is listed as 95%; in the data set with Pyricularia oryzae, 86%. Also, the protection is 100% in the data set with Peronospora parasitica, 70% in the data set on Pyrenophora teres and 71% in the data set with Puccinia recondita. The “protection (% of efficacy)” value in the data set with Pyricularia grisea is 86%. For the same compound, the “logP value of the minor isomer (in parenthesis in column Isomer ratio [d])” value in data set [1] (pH 2.7) is “(1.36)”. Also, in data set [1] (pH 2.7), the log p is 1.54^[b].
Turning to `CCC(C)n1cc(-c2ccnc(N=C(c3ccccc3)c3ccccc3)c2)c(-c2ccc(Cl)s2)n1` (stereo not shown) [Example 308], the log p in data set [2] is 6.5^[c].
In the case of `CCC(C)n1cc(-c2ccnc(N)c2)c(-c2ccc(Cl)s2)n1` (stereo not shown) [Example 317], the “% Inhibition of fungal growth at 50 μM” value in the data set on Fusarium graminearum came out at 78%. Also, the “% Inhibition of DON/AcDON at 50 μM” value in the data set on Fusarium graminearum (7 days at 28° C.) is 100%. Also, in data set [2], the log p was 3.31^[c].

Source of the values: patent US8685974B2 (Bayer CropScience AG, priority 2009, dated 2014).
